These results are taken from patent US20230084927A1, “GLUCOSE UPTAKE INHIBITORS AND USES THEREOF” (METABOMED LTD., priority 2019, published 2023).

Structures are written as SMILES.

For one assay, the system named is SDH-WT cells. Kind of assay: Cellular / differential toxicity assay (CellTiter-Glo, 3 days). In kind it is cell-based, murine. To be noted: Mus musculus, 72 h, toxicity, SDH-WT cells, 3 days, CellTiter-Glo; read-out: EC50 (uM) SDH-WT. The protocol: (§1) Identification of compounds that target specifically SDH-deficient cells was done by screening a library of small-molecule by using a differential toxicity screen with SDHB-proficient vs. SDHB-deficient cells (the […] cells were described in Cardaci 2015).
(§2) Cells Used for the Differential Assays: SDH-WT; SDH-KO-HRAS
(§3) Cell Culture Conditions: • Medium: DMEM-F12 medium+1 mM Glutamine+3% FBS • Plates: 96 well plate—Black, clear flat bottom • Incubation time: 3 days • Compound concentration: 10 point dilution starting from 10 uM to 0.0065 uM or a lower range when needed. • Viability assay at the end of incubation: Celltiter-Glo (CTG) from Promega.
(§4) Protocol: • Day 1: Plate cells in 96 well plate together with the appropriate concentration of compound.
(§5) Incubate for 3 days at 37° C. in 5% CO2 tissue culture incubator. • Day 4: Check viability of cells by adding CTG reagent and read luminescence in plate reader
(§6) SDH-WT and SDH-KO cells were grown in DMEM F12 supplemented with 1 mM Glutamine+3% FBS were treated with different concentrations of the indicated compounds in FIG. 11. Cell viability was determined 72 hours later by CellTiter Glue reagent (Promega), the luminescence was measured with ClarioStar reader (BMG) and the EC50s were calculated by Prism.
(§7) SDH-WT and SDH-KO cells were grown in DMEM F12 supplemented with 1 mM Glutamine+3% FBS were treated with different concentrations of the indicated compounds. Cell viability was determined 72 hours later by CellTiter Glue reagent (Promega), the luminescence was measured with ClarioStar reader (BMG) and the EC50s were calculated by Prism.
(§8) The cells were grown in DMEM F12 supplemented with 1 mM Glutamine+3% FBS were treated with different concentrations of the indicated compounds. Cell viability was determined 72 hours later by CellTiter Glue reagent (Promega), the luminescence was measured with ClarioStar reader (BMG) and the EC50s were calculated by Prism. Murine SDHB-WT/KO, HRAS transformed isogenic pair (FIG. 12A); UOK269, Human Tumor-derived SDHB-deficient RCC in their WT counterpart with re-expression of SDHB (FIG. 12B); and ACHN, RCC cells, and their SDHB-KO (SDHB CRISPRed out) isogenic cells (FIG. 12C).

In assay [1] the test system is SDH-KO-HRAS cells (SDHB-deficient). The assay is described as above. In kind it is cell-based, murine. The conditions noted are these: Mus musculus, 72 h, toxicity, SDH-KO cells, 3 days, CellTiter-Glo; read-out: EC50 (uM) SDH-KO-HTAS-C17. As to the method: as §1, §2, §3, §4, §5, §6, §7, §8
On the technique in general: Cellular ATP, detected with luciferase, serves as a proxy for viable cell number.

By EC50 is commonly meant the concentration needed to bring the measured effect to its halfway point.

Consider `COc1ccc(CCNc2ncnc3c2sc2ncccc23)cc1OC` [Compound 126], for which the EC50 is 3 to 10 µM in the assay with SDH-WT cells and 1 to 3 µM in assay [1].

With `CC1(C)Cc2nc3sc4c(NCCc5ccncc5)ncnc4c3cc2CO1` [Compound 127], the concentration giving a half-maximal response (EC50) (with SDH-WT cells; in assay [1]) was more than 10 µM in each case.

As for `COc1ccccc1CCNc1ncnc2c1sc1nc3c(cc12)COC(C)(C)C3` [Compound 128], the EC50 (with SDH-WT cells; in assay [1]) was 3 to 10 µM in each case.

With `COc1ccc(CCNc2ncnc3c2sc2nc4c(cc23)COC(C)(C)C4)cc1` [Compound 129], the values for the EC50 (with SDH-WT cells; in assay [1]) were more than 10 µM and less than 1 µM, respectively.

For the molecule `COC(=O)c1ccc(CCNc2ncnc3c2sc2nc4c(cc23)COC(C)(C)C4)cc1` [Compound 130], the EC50 (with SDH-WT cells; in assay [1]) was more than 10 µM each time.

In the case of `CC1(C)Cc2nc3sc4c(NCCc5ccc6c(c5)OCCO6)ncnc4c3cc2CO1` [Compound 131], the EC50 (with SDH-WT cells; in assay [1]) was more than 10 µM each time.

In the case of `COc1ccc(Nc2ncnc3c2sc2nc4c(cc23)COC(C)(C)C4)cc1OC` [Compound 132], the EC50 (in the assay with SDH-WT cells; in assay [1]) was more than 10 µM each time.

In the case of `CC1(C)Cc2nc3sc4c(NCCc5ccccn5)ncnc4c3cc2CO1` [Compound 133], the EC50 with SDH-WT cells was more than 10 µM; in assay [1], 3 to 10 µM.

Turning to `CC(C)Nc1ncnc2c1sc1nc3c(cc12)COC(C)(C)C3` [Compound 134], the EC50 (in the assay on SDH-WT cells; in assay [1]) was more than 10 µM throughout.

As to `CC1(C)Cc2nc3sc4c(NCc5ccccc5)ncnc4c3cc2CO1` [Compound 135], the EC50 (in the assay on SDH-WT cells; in assay [1]) was more than 10 µM throughout.

Regarding `CC1(C)Cc2nc3sc4c(N5CCNCC5)ncnc4c3cc2CO1` [Compound 136], the concentration for a half-maximal effect (EC50) (with SDH-WT cells; in assay [1]) was more than 10 µM each time.

For the molecule `CC1(C)Cc2nc3sc4c(N5CCOCC5)ncnc4c3cc2CO1` [Compound 137], the EC50 (with SDH-WT cells; in assay [1]) was more than 10 µM each time.

For `CC1(C)Cc2nc3sc4c(N5CCCCC5)ncnc4c3cc2CO1` [Compound 138], the concentration for a half-maximal effect (EC50) (in the assay on SDH-WT cells; in assay [1]) was more than 10 µM throughout.

On to `CC1(C)Cc2nc3sc4c(NCCc5ccc(O)c(F)c5)ncnc4c3cc2CO1` [Compound 140], for which the EC50 in the assay on SDH-WT cells lay within 3 to 10 µM; in assay [1] it was 1 to 3 µM.

As to `CC1(C)Cc2nc3sc4c(NCCc5ccc(NC(N)=O)cc5)ncnc4c3cc2CO1` [Compound 141], the EC50 with SDH-WT cells was more than 10 µM; in assay [1], less than 1 µM.

Regarding `CNC(=O)c1ccc(CCNc2ncnc3c2sc2nc4c(cc23)COC(C)(C)C4)cc1` [Compound 142], the EC50 in the assay on SDH-WT cells is 3 to 10 µM; in assay [1], less than 1 µM.

Turning to `CC1(C)Cc2nc3sc4c(NCCc5ccc(OC(N)=O)cc5)ncnc4c3cc2CO1` [Compound 143], the EC50 was more than 10 µM in the assay on SDH-WT cells and less than 1 µM in assay [1].

Turning to `CC1(C)Cc2nc3sc4c(NCCc5ccc(C(N)=O)cc5)ncnc4c3cc2CO1` [Compound 144], the EC50 in the assay with SDH-WT cells is more than 10 µM; in assay [1], less than 1 µM.

Regarding `CN(c1ccc(CCNc2ncnc3c2sc2nc4c(cc23)COC(C)(C)C4)cc1)S(C)(=O)=O` [Compound 146], the results for the EC50 (in the assay with SDH-WT cells; in assay [1]) were more than 10 µM and 3 to 10 µM, respectively.

Consider `CC1(C)Cc2nc3sc4c(NCCc5ccc(-c6ncco6)cc5)ncnc4c3cc2CO1` [Compound 147], for which the EC50 with SDH-WT cells was 3 to 10 µM; in assay [1], less than 1 µM.

Take `CC1(C)Cc2nc3sc4c(NCCc5ccc(-c6cncs6)cc5)ncnc4c3cc2CO1` [Compound 148]: the EC50 is more than 10 µM in the assay with SDH-WT cells and less than 1 µM in assay [1].

With `CC1(C)Cc2nc3sc4c(NCCc5ccc(-c6cnco6)cc5)ncnc4c3cc2CO1` [Compound 149], the EC50 (with SDH-WT cells; in assay [1]) was more than 10 µM in each case.

Consider `CN(C)C(=O)c1ccc(CCNc2ncnc3c2sc2nc4c(cc23)COC(C)(C)C4)cc1` [Compound 150], for which the EC50 was more than 10 µM with SDH-WT cells and 1 to 3 µM in assay [1].

Consider `CC1(C)Cc2nc3sc4c(NCCc5ccc(N)cc5)ncnc4c3cc2CO1` [Compound 151], for which the EC50 was 3 to 10 µM with SDH-WT cells and less than 1 µM in assay [1].

For `CC1(C)Cc2nc3sc4c(NCCc5ccc(NS(C)(=O)=O)cc5)ncnc4c3cc2CO1` [Compound 152], the EC50 (in the assay with SDH-WT cells; in assay [1]) was 3 to 10 µM in each case.

For the molecule `COc1ccc(CCOc2ncnc3c2sc2nc4c(cc23)COC(C)(C)C4)cc1F` [Compound 153], the EC50 (in the assay with SDH-WT cells; in assay [1]) was more than 10 µM in each case.

With `CC1(C)Cc2nc3sc4c(NCCc5ccc(O)cc5)ncnc4c3cc2CO1` [Compound 154], the EC50 is 3 to 10 µM in the assay with SDH-WT cells and less than 1 µM in assay [1].

`CC1(C)Cc2nc3sc4c(NCCc5ccc(N6CCCC6=O)cc5)ncnc4c3cc2CO1` [Compound 156]: the EC50 was more than 10 µM in the assay on SDH-WT cells and 1 to 3 µM in assay [1].

Regarding `CC1(C)Cc2nc3sc4c(NCCc5ccc(OS(C)(=O)=O)cc5)ncnc4c3cc2CO1` [Compound 157], the EC50 (in the assay on SDH-WT cells; in assay [1]) was more than 10 µM each time.

Consider `CC(=O)N(C)c1ccc(CCNc2ncnc3c2sc2nc4c(cc23)COC(C)(C)C4)cc1` [Compound 158], for which the EC50 in the assay with SDH-WT cells is more than 10 µM; in assay [1], less than 1 µM.

`CC1(C)Cc2nc3sc4c(NCCc5ccc(C(=O)O)cc5)ncnc4c3cc2CO1` [Compound 159]: the EC50 (in the assay with SDH-WT cells; in assay [1]) was more than 10 µM in each case.

As to `COc1ccc(CCN(C(C)=O)c2ncnc3c2sc2nc4c(cc23)COC(C)(C)C4)cc1F` [Compound 160], the EC50 (with SDH-WT cells; in assay [1]) was more than 10 µM each time.

On to `COc1ccc(CCNc2ncnc3c2sc2nc4c(cc23)COC(C)(C)C4)cc1C(F)(F)F` [Compound 161], for which the EC50 (in the assay on SDH-WT cells; in assay [1]) was 3 to 10 µM in each case.

For `COc1cccc(OC)c1CCNc1ncnc2c1sc1nc3c(cc12)COC(C)(C)C3` [Compound 162], the EC50 (with SDH-WT cells; in assay [1]) was less than 1 µM throughout.

As to `COCCOCCOCCOCCOCCOC(=O)c1c2c(nc3sc4c(NCCc5ccc6[nH]cnc6c5)ncnc4c13)CC(C)(C)OC2` [Compound 163], the EC50 in the assay with SDH-WT cells is more than 10 µM; in assay [1], 1 to 3 µM.

In the case of `COCCOCCOCCOCCOC(=O)c1c2c(nc3sc4c(NCCc5ccc6[nH]cnc6c5)ncnc4c13)CC(C)(C)OC2` [Compound 164], the EC50 in the assay with SDH-WT cells is 3 to 10 µM; in assay [1], less than 1 µM.

With `COCCOCCOCCOC(=O)c1c2c(nc3sc4c(NCCc5ccc6[nH]cnc6c5)ncnc4c13)CC(C)(C)OC2` [Compound 165, 2-(2-(2-Methoxyethoxy)ethoxy)ethyl 4-((2-(1H-benzo[d]imidazol-6-yl)ethyl)amino)-8,8-dimethyl-8,10-dihydro-7H-pyrano[3″,4″:5′,6′]pyrido[3′,2′:4,5]thieno[3,2-d]pyrimidine-11-carboxylate], the EC50 with SDH-WT cells is more than 10 µM; in assay [1] it was 1 to 3 µM.

Consider `CC1(C)Cc2nc3c(c(S(C)(=O)=O)c2CO1)-c1ncnc(NCCc2ccc4[nH]cnc4c2)c1S3(=O)=O` [Compound 166], for which the EC50 (in the assay with SDH-WT cells; in assay [1]) was 3 to 10 µM in each case.

For `CSc1c2c(nc3sc4c(NCCc5ccc6nc[nH]c6c5)ncnc4c13)CC(C)(C)OC2` [Compound 167], the EC50 (in the assay with SDH-WT cells; in assay [1]) was less than 1 µM throughout.

As for `CC(=O)OC1CCc2nc3sc4c(NCCc5ccc6[nH]cnc6c5)ncnc4c3cc2C1` (stereo not shown) [Compound 168], the EC50 with SDH-WT cells is 1 to 3 µM; in assay [1], less than 1 µM.

Take `OC1CCc2nc3sc4c(NCCc5ccc6[nH]cnc6c5)ncnc4c3cc2C1` (stereo not shown) [Compound 169]: the EC50 was 1 to 3 µM with SDH-WT cells and less than 1 µM in assay [1].

Take `CCOC(=O)c1c2c(nc3sc4c(NCCc5ccc6[nH]cnc6c5)ncnc4c13)CC(C)(C)OC2` [Compound 170, Ethyl 4-((2-(1H-benzo[d]imidazol-5-yl)ethyl)amino)-8,8-dimethyl-8,10-dihydro-7H-pyrano[3″,4″:5′,6′]pyrido[3′,2′:4,5]thieno[3,2-d]pyrimidine-11-carboxylate]: the EC50 (in the assay with SDH-WT cells; in assay [1]) was less than 1 µM each time.

For `CC1(C)Cc2nc3sc4c(NCCc5ccc6[nH]cnc6c5)ncnc4c3c(C(=O)O)c2CO1` [Compound 171, 4-((2-(1H-Benzo[d]imidazol-6-yl)ethyl)amino)-8,8-dimethyl-8,10-dihydro-7H-pyrano[3″,4″:5′,6′]pyrido[3′,2′:4,5]thieno[3,2-d]pyrimidine-11-carboxylic Acid], the EC50 (in the assay with SDH-WT cells; in assay [1]) was 3 to 10 µM in each case.

For `CC(CNc1ncnc2c1sc1nc3c(cc12)COC(C)(C)C3)c1ccc2c(c1)ncn2C` (stereo not shown) [Compound 172], the EC50 (in the assay with SDH-WT cells; in assay [1]) was 3 to 10 µM throughout.
